Article PMC7180572, “5-Alkylamino-N-phenylpyrazine-2-carboxamides: Design, Preparation, and Antimycobacterial Evaluation” (Molecules, 2020)
pIC50: −log10 of the molar value. ≈ marks a conversion by molar mass, not a printed value. Like-named read-outs stand apart in the source and are kept apart here.

Tests used:
[1] = system: Mycobacterium tuberculosis H37Ra ITM-M006710 (ATCC 9431); experiment: Microdilution broth, modified Microplate Alamar Blue Assay, whole cell growth inhibition; type: cell-based; conditions: Mycobacterium tuberculosis, read-out: MIC Mtb H37Ra
[2] = system: Mycobacterium aurum DSM 43999 (ATCC 23366); experiment: as above; type: cell-based; conditions: Mycolicibacterium aurum, read-out: MIC Mycobacterium aurum
[3] = system: Mycobacterium smegmatis DSM 43465 (ATCC 607); experiment: as above; type: cell-based; conditions: Mycolicibacterium smegmatis, read-out: MIC Mycobacterium smegmatis
[4] = system: M. kansasii CNCTC My 235/80 (ATCC 12478); experiment: 96 well plate microdilution broth method with Alamar Blue; type: cell-based; conditions: Mycobacterium kansasii
[5] = system: M. avium ssp. avium CNCTC My 80/72 (ATCC 15769); experiment: as above; type: cell-based; conditions: Mycobacterium avium
HepG2 cells = experiment: HepG2 cytotoxicity, CellTiter 96 (MTS) assay; type: cell-based, human; conditions: for pIC50: Homo sapiens, read-out: HepG2 IC50; for SI, selectivity index: IC50 (HepG2)/MIC against Mtb H37Ra (in µM)
[6] = system: Staphylococcus aureus spp.aureus ATCC 29213, CCM 4223; experiment: Antibacterial microdilution broth method (EUCAST); type: cell-based; conditions: read-out: MIC SA
[7] = system: Staphylococcus aureus methicillin resistant ATCC 43300, CCM 4750; experiment: microbe, parasite or virus in culture; type: cell-based; conditions: ATCC 43300 / CCM 4750 / MRSA, read-out: MIC MRSA
[8] = system: Staphylococcus epidermidis ATCC 12228, CCM 4418; experiment: Antibacterial microdilution broth method (EUCAST); type: cell-based; conditions: read-out: MIC SE
[9] = system: Enterococcus faecalis ATCC 29212, CCM 4224; experiment: Antibacterial microdilution broth method (EUCAST); type: cell-based; conditions: read-out: MIC EF
[10] = system: Escherichia coli ATCC 25922, CCM 3954; experiment: Antibacterial microdilution broth method (EUCAST); type: cell-based; conditions: read-out: MIC EC
[11] = system: Acinetobacter baumanii ATCC 19606, DSM 30007; experiment: Antibacterial microdilution broth method (EUCAST); type: cell-based; conditions: Acinetobacter baumannii
[12] = system: Pseudomonas aeruginosa ATCC 27853, CCM 3955; experiment: Antibacterial microdilution broth method (EUCAST); type: cell-based; conditions: read-out: MIC PA
[13] = system: Candida albicans ATCC 24433, CCM 8320; experiment: Antifungal microdilution broth method (EUCAST); type: cell-based
[14] = system: Candida krusei ATCC 6258, CCM 8271; experiment: Antifungal microdilution broth method (EUCAST); type: cell-based; conditions: Pichia kudriavzevii
[15] = system: Candida parapsilosis ATCC 22019, CCM 8260; experiment: Antifungal microdilution broth method (EUCAST); type: cell-based; conditions: Lodderomyces parapsilosis
[16] = system: Candida tropicalis ATCC 750, CCM 8264; experiment: Antifungal microdilution broth method (EUCAST); type: cell-based; conditions: read-out: MIC CT
[17] = system: Aspergillus fumigatus ATCC 204305; experiment: Antifungal microdilution broth method (EUCAST); type: cell-based; conditions: read-out: MIC AF
[18] = system: Aspergillus flavus CCM 8363; experiment: Antifungal microdilution broth method (EUCAST); type: cell-based; conditions: read-out: MIC AFla
[19] = system: Absidia corymbifera CCM 8077 (Lichtheimia corymbifera); experiment: Antifungal microdilution broth method (EUCAST); type: cell-based; conditions: read-out: MIC AC
[20] = system: Trichophyton interdigitale ATCC 9533, CCM 8377; experiment: Antifungal microdilution broth method (EUCAST); type: cell-based; conditions: read-out: MIC TI
[21] = system: Klebsiella pneumoniae ATCC 10031, CCM 4415; experiment: Antibacterial microdilution broth method (EUCAST)
[22] = type: physicochemical
Procedure: As a complementary test, final compounds were tested for in vitro activity against selected fungal and bacterial pathogens of clinical importance. The microdilution broth method was performed according to The European Committee on Antimicrobial Susceptibility Testing (EUCAST) instructions with slight modifications. The minimum inhibitory concentration was expressed in µM. Not all compounds were evaluated due to the fact of a problem with solubility which occurred for 18 samples. […] See Supplementary Materials for the list of tested strains, methodology, and full results.

[23] = in vitro, Middlebrook 7H9 broth, resazurin
[24] = ATCC12478, pH 6.6, read-out: MIC Mycobacterium kansasii
[25] = ATCC15769, pH 6.6, read-out: MIC Mycobacterium avium
[26] = ATCC12478, Middlebrook 7H9 broth pH 6.6, read-out: MIC Mycobacterium kansasii
[27] = ATCC15769, Middlebrook 7H9 broth pH 6.6, read-out: MIC Mycobacterium avium
[28] = HepG2, 24 h incubation, > means higher concentration not reproducible due to precipitation

SMILES: CCCCCCCNc1cnc(C(=O)Nc2ccc(C)cc2)cn1 [Compound 4e, 5-(Heptylamino)-N-(p-tolyl)pyrazine-2-carboxamide]
- MIC ([1]; MIC converted to µM): 2.39 µM
- MIC [1, 23]: 0.78 µg/mL
- MIC [2]: ≥ 500 µg/mL
- MIC [3]: ≥ 500 µg/mL
- MIC [4, 24]: 12.5 µg/mL (≈ 38.3 µM)
- MIC [5, 25]: > 100 µg/mL
- pIC50 (HepG2 cells; HepG2, 24 h): < 4.30
- SI, selectivity index (HepG2 cells): >20.91
- MIC ([6]; 24 h): > 500 µM
- MIC ([6]; 48 h): > 500 µM
- MIC ([7]; 24 h): > 500 µM
- MIC ([7]; 48 h): > 500 µM
- MIC ([8]; 24 h): > 500 µM
- MIC ([8]; 48 h): > 500 µM
- MIC ([9]; 24 h): > 500 µM
- MIC ([9]; 48 h): > 500 µM
- MIC ([10]; 24 h): > 500 µM
- MIC ([10]; 48 h): > 500 µM
- MIC ([11]; 24h): > 500 µM
- MIC ([11]; 48h): > 500 µM
- MIC ([12]; 72 h): > 500 µM
- MIC ([12]; 120 h): > 500 µM
- MIC ([13]; 24 h, read-out: MIC CA): > 125 µM
- MIC ([13]; 48 h, read-out: MIC CA): > 125 µM
- MIC ([14]; 24 h, read-out: MIC CK): > 125 µM
- MIC ([14]; 48 h, read-out: MIC CK): > 125 µM
- MIC ([15]; 24 h, read-out: MIC CP): > 125 µM
- MIC ([15]; 48 h, read-out: MIC CP): > 125 µM
- MIC ([16]; 24 h): > 125 µM
- MIC ([16]; 48 h): > 125 µM
- MIC ([17]; ATCC204305, 24 h): > 125 µM
- MIC ([17]; ATCC204305, 48 h): > 125 µM
- MIC ([18]; CCM8363, 24 h): > 125 µM
- MIC ([18]; CCM8363, 48 h): > 125 µM
- MIC ([19]; CCM8077, 24 h): > 125 µM
- MIC ([19]; CCM8077, 48 h): > 125 µM
- MIC ([20]; 72 h): > 125 µM
- MIC ([20]; 120 h): > 125 µM
- melting point: 157.8 to 158.9 °C
- MIC KP ([21]; 24h): > 500 µM
- MIC KP ([21]; 48h): > 500 µM

SMILES: CCCCCNc1cnc(C(=O)Nc2ccc(O)cc2)cn1 [Compound 3c, N-(4-hydroxyphenyl)-5-(pentylamino)pyrazine-2-carboxamide]
- MIC ([1]; MIC converted to µM): 13 µM
- MIC [1, 23]: 3.91 µg/mL
- MIC [2]: ≥ 500 µg/mL
- MIC [3]: 31.2 µg/mL (≈ 104 µM)
- MIC [4, 24]: 12.5 µg/mL (≈ 41.6 µM)
- MIC [5, 25]: 50 µg/mL (≈ 166 µM)
- HepG2 IC50 (HepG2 cells; 24 h incubation, > means higher concentration not reproducible due to precipitation): above the tested range of concentrations
- pIC50 (HepG2 cells; HepG2, 24 h): < 3.30
- SI, selectivity index (HepG2 cells): >38.4
- MIC ([6]; 24 h): > 125 µM
- MIC ([6]; 48 h): > 125 µM
- MIC ([7]; 24 h): > 125 µM
- MIC ([7]; 48 h): > 125 µM
- MIC ([8]; 24 h): > 125 µM
- MIC ([8]; 48 h): > 125 µM
- MIC ([9]; 24 h): > 125 µM
- MIC ([9]; 48 h): > 125 µM
- MIC ([10]; 24 h): > 125 µM
- MIC ([10]; 48 h): > 125 µM
- MIC ([11]; 24h): > 125 µM
- MIC ([11]; 48h): > 125 µM
- MIC ([12]; 72 h): > 125 µM
- MIC ([12]; 120 h): > 125 µM
- MIC ([13]; 24 h, read-out: MIC CA): 62.5 µM (≈ 18.8 µg/mL)
- MIC ([13]; 48 h, read-out: MIC CA): 62.5 µM (≈ 18.8 µg/mL)
- MIC ([13]; read-out: MIC CA (Candida albicans)): 62.5 µM (≈ 18.8 µg/mL)
- MIC ([14]; 24 h, read-out: MIC CK): > 125 µM
- MIC ([14]; 48 h, read-out: MIC CK): > 125 µM
- MIC ([14]; read-out: MIC CK (Candida krusei)): > 125 µM
- MIC ([15]; 24 h, read-out: MIC CP): > 125 µM
- MIC ([15]; 48 h, read-out: MIC CP): > 125 µM
- MIC ([15]; read-out: MIC CP (Candida parapsilosis)): > 125 µM
- MIC ([16]; 24 h): > 125 µM
- MIC ([16]; 48 h): > 125 µM
- MIC ([17]; ATCC204305, 24 h): > 125 µM
- MIC ([17]; ATCC204305, 48 h): > 125 µM
- MIC ([18]; CCM8363, 24 h): > 125 µM
- MIC ([18]; CCM8363, 48 h): > 125 µM
- MIC ([19]; CCM8077, 24 h): > 125 µM
- MIC ([19]; CCM8077, 48 h): > 125 µM
- MIC ([20]; 72 h): > 125 µM
- MIC ([20]; 120 h): > 125 µM
- melting point: 162.6 to 166.8 °C
- MIC KP ([21]; 24h): > 125 µM
- MIC KP ([21]; 48h): > 125 µM

SMILES: CCCCCNc1cnc(C(=O)Nc2ccc(Cl)cc2O)cn1 [Compound 6c, N-(4-chloro-2-hydroxyphenyl)-5-(pentylamino)pyrazine-2-carboxamide]
- MIC [1, 23]: ≥ 500 µg/mL
- MIC [2, 23]: ≥ 500 µg/mL
- MIC [3, 23]: 3.91 µg/mL (≈ 11.7 µM)
- MIC [4, 26]: 25 µg/mL (≈ 74.7 µM)
- MIC [5, 27]: > 100 µg/mL
- pIC50 (HepG2 cells; [28]): 4.09
- Solubility problem in antibacterial/antifungal testing [22]: did not dissolve in DMSO
- melting point: 206.5 to 208.7 °C

SMILES: CCCCCCCNc1cnc(C(=O)Nc2ccc(Cl)cc2O)cn1 [Compound 6e, N-(4-chloro-2-hydroxyphenyl)-5-(heptylamino)pyrazine-2-carboxamide]
- MIC [1, 23]: ≥ 500 µg/mL
- MIC [2, 23]: ≥ 500 µg/mL
- MIC [3, 23]: ≥ 500 µg/mL
- MIC [4, 26]: 25 µg/mL (≈ 68.9 µM)
- MIC [5, 27]: > 100 µg/mL
- pIC50 (HepG2 cells; [28]): < 4.60
- Solubility problem in antibacterial/antifungal testing [22]: did not dissolve in DMSO
- melting point: 199.8 to 200.8 °C
